Measured values from ChEMBL document CHEMBL5550215, “Discovery of Novel Imidazo[1,2-a]pyridine-Based HDAC6 Inhibitors as an Anticarcinogen with a Cardioprotective Effect” (J Med Chem, 2024).
Active and inactive are the calls of the source. The calls are words filed in the database; no cut-off is given here.

Key:
Histone deacetylase 1 [1] = target: T1, Histone deacetylase 1 (Homo sapiens, UniProt Q13547); test: Inhibition of HDAC1 (unknown origin)
PANC-1 = test: Antiproliferative activity against human PANC-1 cells assessed as inhibition of cell growth by MTT assay
[2] = Observed apparent volume of distribution in male Sprague-Dawley rat at 7 mg/kg,iv measured upto 8 hrs by UPLC-MS/MS analysis; type: ADME, organism-based; settings: in vivo, read-out: Vz
[3] = target: T2, Protein deacetylase HDAC6 (Mus musculus) (UniProt Q9Z2V5); test: In vivo inhibition of HDAC6 in C57BL/6 mouse xenografted with MGC-803 cells assessed as effect on acetylated H3 level at 25 to 50 mg/kg, ip by Western blot analysis; type: functional, organism-based; settings: dose 25-50 mg/kg
T2 sequence (whole entry): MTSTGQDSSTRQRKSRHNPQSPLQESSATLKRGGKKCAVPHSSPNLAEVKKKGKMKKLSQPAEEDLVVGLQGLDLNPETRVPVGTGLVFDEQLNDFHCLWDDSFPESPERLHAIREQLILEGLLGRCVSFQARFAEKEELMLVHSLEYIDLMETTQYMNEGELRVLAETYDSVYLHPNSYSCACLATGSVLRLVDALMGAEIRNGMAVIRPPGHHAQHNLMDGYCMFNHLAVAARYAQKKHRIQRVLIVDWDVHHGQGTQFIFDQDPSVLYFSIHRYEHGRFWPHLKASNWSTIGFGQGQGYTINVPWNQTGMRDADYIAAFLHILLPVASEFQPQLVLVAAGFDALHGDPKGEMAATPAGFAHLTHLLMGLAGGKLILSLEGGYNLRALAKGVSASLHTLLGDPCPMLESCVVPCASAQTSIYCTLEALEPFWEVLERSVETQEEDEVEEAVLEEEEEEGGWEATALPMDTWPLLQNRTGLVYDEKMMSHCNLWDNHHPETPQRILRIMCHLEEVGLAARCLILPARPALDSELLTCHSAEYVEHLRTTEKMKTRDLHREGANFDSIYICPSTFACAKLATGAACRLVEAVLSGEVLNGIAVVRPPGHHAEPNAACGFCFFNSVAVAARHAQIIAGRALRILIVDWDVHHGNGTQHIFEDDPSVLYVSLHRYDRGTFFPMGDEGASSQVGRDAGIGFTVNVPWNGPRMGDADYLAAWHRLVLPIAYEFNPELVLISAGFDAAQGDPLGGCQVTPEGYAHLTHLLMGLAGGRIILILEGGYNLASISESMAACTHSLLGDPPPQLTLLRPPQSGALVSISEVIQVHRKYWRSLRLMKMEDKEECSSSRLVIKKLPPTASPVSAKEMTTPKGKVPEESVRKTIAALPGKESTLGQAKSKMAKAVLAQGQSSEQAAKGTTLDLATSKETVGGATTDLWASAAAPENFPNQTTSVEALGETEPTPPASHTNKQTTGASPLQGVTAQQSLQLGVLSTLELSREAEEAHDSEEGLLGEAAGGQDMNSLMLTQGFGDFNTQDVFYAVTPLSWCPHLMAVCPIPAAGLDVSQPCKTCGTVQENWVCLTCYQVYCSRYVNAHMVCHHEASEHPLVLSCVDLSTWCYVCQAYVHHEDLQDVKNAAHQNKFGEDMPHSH

H9c2 [4] = test: Cardioprotective activity in H2O2 induced myocardial injury in rat H9c2 cells assessed as downregulation of IL-18 mRNA level at upto 8 uM by q-PCR analysis; type: functional, cell-based
H9c2 [5] = test: Cardioprotective activity against H2O2 induced myocardial damage in rat H9c2 cells harbouring Ad.HDAC6 assessed as reversal of IL-1 beta expression at 8 uM; type: functional, cell-based
MGC-803 [6] = test: Induction of apoptosis in human MGC-803 cells assessed as early apoptotic cells at 0.5 uM measured after 48 hrs by Annexin V-EGFP and PI staining based flow cytometry analysis (reference value: 0.66%); type: functional
MGC-803 [7] = test: Antiproliferative activity against human MGC-803 cells assessed as inhibition of cell growth by MTT assay
MGC-803 [8] = test: Induction of apoptosis in human MGC-803 cells assessed as decrease in Bcl-2 expression by Western blot analysis; type: functional, cell-based; settings: dose <= 2.0 µM
AGS = test: Antiproliferative activity against human AGS cells assessed as inhibition of cell growth by MTT assay
Mus musculus = test: Cardioprotective activity against myocardial ischemia/reperfusion induced C57BL/6J mouse model assessed as reduction in myocardial infarction area at 10 mg/kg (reference value: 72.19%); type: functional; design: scale not given: the % may be the effect or the level left
MGC-803 [9] = test: Induction of apoptosis in human MGC-803 cells measured after 48 hrs by Annexin V-EGFP and PI staining based flow cytometry analysis; type: functional, cell-based; settings: dose <= 2.0 µM
MGC-803 [10] = test: Induction of apoptosis in human MGC-803 cells assessed as early apoptotic cells at 1 uM measured after 48 hrs by Annexin V-EGFP and PI staining based flow cytometry analysis (reference value: 0.66%); type: functional
H9c2 [11] = test: Cardioprotective activity in H2O2 induced myocardial injury in rat H9c2 cells assessed as effect on SOD level at upto 8 uM by q-PCR analysis; type: functional, cell-based
[12] = Half life in male Sprague-Dawley rat at 7 mg/kg,po measured upto 8 hrs by UPLC-MS/MS analysis; type: ADME, organism-based; settings: in vivo
H9c2 [13] = test: Cardioprotective activity in H2O2 induced myocardial injury in rat H9c2 cells assessed as LDH release by absorbance based analysis; type: functional, cell-based; settings: dose <= 8.0 µM
HGC-27 = test: Antiproliferative activity against human HGC-27 cells assessed as inhibition of cell growth by MTT assay
MGC-803 [14] = test: Induction of apoptosis in human MGC-803 cells assessed as viable cells at 0.5 uM measured after 48 hrs by Annexin V-EGFP and PI staining based flow cytometry analysis (reference value: 92.3%); type: functional; settings: read-out: Activity
[15] = Observed clearance in male Sprague-Dawley rat at 7 mg/kg,po measured upto 8 hrs by UPLC-MS/MS analysis; type: ADME, organism-based; settings: in vivo
H9c2 [16] = test: Cardioprotective activity against H2O2 induced myocardial damage in rat H9c2 cells harbouring Ad.HDAC6 assessed as increase in cell viability at 8 uM by MTT assay; type: functional, cell-based
H9c2 [17] = test: Cardioprotective activity in H2O2 induced myocardial injury in rat H9c2 cells assessed as decrease in cell death at 2 to 8 uM; type: functional, cell-based; settings: dose 2-8 µM
H9c2 [18] = test: Cardioprotective activity in H2O2 induced myocardial injury in rat H9c2 cells assessed as downregulation of IL-1 beta mRNA level at upto 8 uM by q-PCR analysis; type: functional, cell-based
[19] = AUClast in male Sprague-Dawley rat at 7 mg/kg,iv measured upto 8 hrs by UPLC-MS/MS analysis; type: ADME, organism-based; settings: in vivo
Histone deacetylase 1 [20] = target: T1, Histone deacetylase 1; test: Induction of thermal stabilization of HDAC1 in human MGC-803 cells at 48 degree C st 20 uM incubated for 4 hrs by CETSA; type: cell-based
MGC-803 [21] = test: Induction of apoptosis in human MGC-803 cells assessed as late apoptotic cells at 0.5 uM measured after 48 hrs by Annexin V-EGFP and PI staining based flow cytometry analysis (reference value: 3.16%); type: functional

T1 sequence (Q13547 whole entry): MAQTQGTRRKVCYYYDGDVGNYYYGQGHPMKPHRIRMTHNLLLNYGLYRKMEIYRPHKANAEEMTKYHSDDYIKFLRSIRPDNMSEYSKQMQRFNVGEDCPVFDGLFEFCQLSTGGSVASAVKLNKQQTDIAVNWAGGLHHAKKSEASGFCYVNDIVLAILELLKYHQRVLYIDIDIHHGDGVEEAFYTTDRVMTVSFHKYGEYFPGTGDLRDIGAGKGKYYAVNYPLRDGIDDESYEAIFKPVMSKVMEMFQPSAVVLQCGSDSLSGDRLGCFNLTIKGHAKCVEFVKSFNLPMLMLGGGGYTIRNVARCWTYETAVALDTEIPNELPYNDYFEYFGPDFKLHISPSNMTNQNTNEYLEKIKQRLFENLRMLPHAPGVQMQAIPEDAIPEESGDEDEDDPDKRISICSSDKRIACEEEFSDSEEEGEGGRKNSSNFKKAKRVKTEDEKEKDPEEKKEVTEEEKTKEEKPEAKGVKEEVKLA

Question: For O=C(NO)c1ccc(CNC(=O)c2cc(-c3ccc(F)cc3)cn3ccnc23)cc1, which IC50 (Histone deacetylase 1 [1]) is on record?
Answer: Its IC50 is 0.0031 µM.

Question: What about the IC50 (PANC-1) of the same compound?
Answer: Its IC50 is 3.79 µM.

Question: And the Vd [2]?
Answer: Its Vd is 25.5 L/kg.

Question: What about the inhibition [3] of the same compound?
Answer: The inhibition was “Active”.

Question: And the Activity (H9c2 [4])?
Answer: Its Activity is “Active”.

Question: And the Activity (H9c2 [5])?
Answer: The Activity was “Active”.

Question: What about the Activity (MGC-803 [6]) of the same compound?
Answer: The Activity was 0.52%.

Question: And the IC50 (MGC-803 [7])?
Answer: The IC50 was 0.95 µM.

Question: What about the Activity (MGC-803 [8]) of the same compound?
Answer: Its Activity is “Dose-Dependent Effect”.

Question: And the IC50 (AGS)?
Answer: Its IC50 is > 10 µM.

Question: What about the Activity (Mus musculus) of the same compound?
Answer: Its Activity is 37.64%.

Question: And the Activity (MGC-803 [9])?
Answer: The Activity was “Dose-Dependent Effect”.

Question: What about the Activity (MGC-803 [10]) of the same compound?
Answer: Its Activity is 0.48%.

Question: And the Activity (H9c2 [11])?
Answer: The Activity was “inactive”.

Question: What about the half-life [12] of the same compound?
Answer: The half-life was 3.58 h.

Question: And the Activity (H9c2 [13])?
Answer: The Activity was “Active”.

Question: What about the IC50 (HGC-27) of the same compound?
Answer: Its IC50 is 2.8 µM.

Question: What about the viability at 0.5 µM (MGC-803 [14]) of the same compound?
Answer: Its viability at 0.5 µM is 70.5%.

Question: What about the CL/F [15] of the same compound?
Answer: Its CL/F is 1590 mL/min/kg.

Question: What about the Activity (H9c2 [16]) of the same compound?
Answer: The Activity was “Active”.

Question: And the Activity (H9c2 [17])?
Answer: The Activity was “Active”.

Question: What about the Activity (H9c2 [18]) of the same compound?
Answer: The Activity was “Active”.

Question: And the AUC(0-t) at 8 h [19]?
Answer: The AUC(0-t) at 8 h was 740 ng·h/mL.

Question: What about the Activity (Histone deacetylase 1 [20]) of the same compound?
Answer: The Activity was “inactive”.

Question: What about the Activity (MGC-803 [21]) of the same compound?
Answer: The Activity was 15%.
